Measurements as given in PubChem BioAssay (NCI).
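96-well plates; 48 h exposure; 5 concentrations. Endpoints by linear interpolation between flanking doses. Not reached: highest tested concentration assigned. TGI: concentration producing complete growth inhibition.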

Assays:
Test in all cases: NCI anticancer screen, dose series, 48 h
786-0 renal = tested on: 786-0 renal
HCT-15 colon = tested on: HCT-15 colon
HOP-18 NSCLC = tested on: HOP-18 NSCLC
IGROV1 ovarian = tested on: IGROV1 ovarian
LOX IMVI melanoma = tested on: LOX IMVI melanoma
LXFL 529 NSCLC = tested on: LXFL 529 NSCLC
OVCAR-3 ovarian = tested on: OVCAR-3 ovarian
RPMI-8226 leukemia = tested on: RPMI-8226 leukemia
SW-620 colon = tested on: SW-620 colon
TK-10 renal = tested on: TK-10 renal
DU-145 prostate = tested on: DU-145 prostate

Row | Structure (SMILES) | TGI (786-0 renal) [µM] | TGI (HCT-15 colon) [µM] | TGI (HOP-18 NSCLC) [µM] | TGI (IGROV1 ovarian) [µM] | TGI (LOX IMVI melanoma) [µM] | TGI (LXFL 529 NSCLC) [µM] | TGI (OVCAR-3 ovarian) [µM] | TGI (RPMI-8226 leukemia) [µM] | TGI (SW-620 colon) [µM] | TGI (TK-10 renal) [µM] | TGI (DU-145 prostate) [µM]
1 | Cc1cc(/C=C/c2cc[n+](C)c3ccccc23)c(O)c2ncccc12 | 14.3 | 49.8 | 11.9 | 8.39 | 12.3 | 16 | 3.97 | 6.41 | 19.3 | 17.5 | –
2 | Cc1c(N2CCN(C)CC2)nc2ccc(Cl)cc2c1-c1ccccc1 | 27.9 | 40.7 | – | – | 28.3 | 31.7 | 74.3 | 44.9 | 34.6 | > 10 | –
3 | CC1=C(O)C(=O)C2C(=O)C1C1Cc3ccccc3C21 (stereo unspecified) | > 100 | > 100 | – | > 100 | > 100 | > 100 | > 100 | > 100 | > 100 | > 100 | –
4 | CC(C)C(=O)Nc1cc(C(F)(F)F)ccc1[N+](=O)[O-] | > 100 | > 100 | – | > 100 | > 100 | – | > 100 | > 100 | > 100 | > 100 | > 100
5 | CN(C)CCn1c(=O)c2ccc(NCCN3CCNCC3)c3c(=O)c4ccccc4n(c1=O)c23 | 14.1 | 25.3 | – | 12.1 | 11.9 | – | 25.1 | 2.93 | 21.3 | 27.5 | 17.7
6 | C=C(CCC/C(C)=C/C=C/[C@@H](C)CCCc1ccoc1)C[C@@H]1OC(=O)[C@H](C)[C@@H]1O | 31.5 | 21.3 | – | 21.7 | 21.8 | – | 16 | 43.4 | 23.7 | 25.8 | 23.5
7 | CC(C)N=C(N)NC#N | – | > 100 | > 100 | > 100 | > 100 | > 100 | > 100 | > 100 | > 100 | – | –
8 | O=c1[nH]nc(Cc2c[nH]c3ccccc23)o1 | > 100 | > 100 | – | > 100 | > 100 | – | > 100 | > 100 | > 100 | > 100 | > 100
9 | O=C(c1ccccc1)c1ccc2[nH]c(-c3c(Cl)c(Cl)c(Cl)c(Cl)c3C(=O)N/N=C/c3cccc(Oc4ccccc4)c3)nc2c1 | > 100 | > 100 | – | > 100 | > 100 | – | > 100 | > 100 | > 100 | > 100 | > 100
10 | N#Cc1c(N2CCC(O)C2)c2ccccc2n2c1nc1ccccc12 (stereo unspecified) | 50.6 | > 100 | – | > 100 | > 100 | – | > 100 | > 100 | > 100 | > 100 | > 100
11 | CCOC(=O)C1=CCOc2cc(N(C)C)ccc21 | > 100 | > 100 | – | > 100 | > 100 | – | 55.3 | > 100 | > 100 | > 100 | > 100
12 | CN1C(=O)C2(C=CC(O)CC2)c2ccccc21 (stereo unspecified) | > 100 | > 100 | – | > 100 | > 100 | – | > 100 | > 100 | > 100 | > 100 | > 100
13 | CC(C)=CCC/C(C)=C/CC/C(C)=C/CC/C(C)=C/CC/C(C)=C/CC/C(C)=C/CC/C(C)=C/CC/C(C)=C/CC/C(C)=C/CO | > 100 | > 100 | – | > 100 | > 100 | – | > 100 | > 100 | > 100 | > 100 | > 100
14 | COc1ccc(CCCNC(=O)c2cc(OC)c(OC)cc2CCO)cc1OC | > 100 | > 100 | – | > 100 | > 100 | – | > 100 | > 100 | > 100 | > 100 | > 100
15 | COC(=O)c1ccc(N=NN(C)COc2ccc(Br)cc2)cc1 | – | > 100 | > 100 | > 100 | > 100 | – | > 100 | > 79.8 | > 100 | – | –
16 | COc1ccccc1C1ON=C(c2ccc([N+](=O)[O-])cc2)N1C12CC3CC(CC(C3)C1)C2 (stereo unspecified) | > 100 | > 100 | – | > 100 | > 100 | – | > 100 | > 100 | > 100 | > 100 | > 100
